These are literature values, as cited in PMC10698917, “Antioxidant and antidiabetic flavonoids from the leaves of Dypsis pembana (H.E.Moore) Beentje & J.Dransf., Arecaceae: in vitro and molecular docking studies” (BMC Complementary Medicine and Therapies, 2023).

The series concerns HepG-2 cell line. Set-up: method as in PMID 37391756. The note with it: cited from earlier work.

With `O=c1cc(-c2ccc(O)cc2)oc2cc(O)c([C@@H]3O[C@H](CO)[C@@H](O)[C@H](O)[C@H]3O)c(O)c12` [Compound 13, isovitexin], the Cytotoxic activity result is “promising cytotoxic activities”.
For the compound `O=c1cc(-c2ccc(O)cc2)oc2c([C@@H]3O[C@H](CO)[C@@H](O)[C@H](O)[C@H]3O)c(O)c([C@@H]3O[C@H](CO)[C@@H](O)[C@H](O)[C@H]3O)c(O)c12` [Compound 7, vicenin-II], the Cytotoxic activity entry is reported as “promising cytotoxic activities”.
